In patent US11357740B2, “Cannabidiol for enhancing the therapeutic effect of a steroid” (STERO BIOTECHS LTD., priority 2013, dated 2022):

Tests used:
[1] = system: patients undergoing allogeneic hematopoietic stem cell transplantation; assay: Prevention of acute and chronic GVHD in allogeneic stem cell transplanted patients (46 patients); format: in vivo, human; set-up: Non-relapse mortality / Overall survival rate: concentration or dose not given beside the values
Description: Forty six (46) patients over 18 years of age undergoing allogeneic hematopoietic stem cell transplantation at the Rabin Medical Center in Israel were recruited. Patients having history of psychosis or asthma, or consuming Cannabis during the last two months before transplantation were excluded from the study.
All patients received standard GVHD prophylaxis consisting of cyclosporine twice a day starting on day −1 with target trough levels ≥200 ng/mL in combination with short course of methotrexate (15 mg/sqm on day +1 and 10 mg/sqm on days +3 and +6). Most patients transplanted from unrelated donors received anti-T-cell globulin (ATG Fresenius) at a low dose of 5 mg/kg on days −3 to −1.
The investigational agent, CBD (STI Pharmaceuticals, Brentwood, Essex, UK) was dissolved in olive oil at a concentration of 2.5% and was orally administered from day −7 through day +30. The starting dose of CBD was 10 mg twice a day, and doses were doubled every other day to a maximal dose of 150 mg twice a day.
To estimate the prophylactic and therapeutic effect of Cannabidiol, the patients were carefully monitored and documented for the presentation of acute and chronic GVHD symptoms, the time of onset, the severity of the symptoms, the responsiveness to treatment, and the occurrence of infections.
Furthermore, a panel of 4 serum cytokines (soluble TNF receptor 1 (sTNFRI), soluble IL-2 receptor alpha (sIL2R-alpha), hepatocyte growth factor (HGF), and IL8)) were monitored. Blood samples were taken at days −7(A), 0(B), +14(C), and +28(D). The difference in blood levels between the various time points (B-A, C-B and D-C) were assessed.
Primary end points were safety and cumulative incidence of grade 2-4 and grade 3-4 GVHD by day +100. The secondary end points were cumulative incidence of chronic and severe chronic GVHD, non-relapse mortality (NRM), relapse incidence (RI), and overall survival (OS). NRM mortality was defined as death while the patient was in CR. Cumulative incidence curves were used for acute GVHD and chronic GVHD estimation, taking into account relapse and death as competing risks. Cumulative incidence curves were used for RI and NRM taking into account disease recurrence and death as competing events. Probabilities of OS and LFS were calculated using the Kaplan-Meier estimates.

[2] = system: patients experiencing severe refractory chronic GVHD; assay: Case studies: CBD for severe refractory chronic GVHD; format: in vivo, human; conditions: person
Description: This example describes cases studies that show the surprising efficacy of CBD treatment of patients experiencing severe refractory chronic GVHD.
A person with acute lymphoid leukemia in first complete remission, underwent an allogeneic hematopoietic cell transplantation from a matched unrelated donor with myeloablative conditioning consisting of total body irradiation (12 Gray), cyclophosphamide and ATG (Fresenius, 15 mg/kg). The patient developed an overlap syndrome (concomitant acute plus chronic GVHD features) during the first month after transplantation which was treated with cyclosporine and steroids until complete remission. Immunosuppression was stopped 5 months after transplantation. Eighteen months after transplantation they developed chronic extensive GVHD with involvement of the oral cavity, eyes, liver, joints and skin. Skin involvement progressed to sclerosis. They started again cyclosporine and oral steroids with no improvement. There was no further improvement with imatinib (Gleevec). […] Unexpectedly, Prednisone effective therapeutic dose was tapered off up to 7.5-10 mg QD (20-50% reduction in the steroid's dose).
A person with acute myeloid leukemia in second complete remission underwent an allogeneic hematopoietic cell transplantation from a matched sibling donor with myeloablative conditioning consisting of busulfex (12.8 mg/kg) and cyclophosphamide (120 mg/kg). The patient experienced relapse in the central nervous system and breasts 12 months after transplantation, received chemo-radiotherapy and achieved complete remission. Shortly after remission, they developed chronic extensive GVHD with severe involvement of the eyes, joint and skin. Skin involvement progressed to severe sclerosis with limited range of motion of the joints. They were unresponsive to cyclosporine and oral steroids and therefore they were stopped after few months.

[3] = system: patients with late onset acute GVHD given steroids; assay: Case studies: CBD reduces the effective dose of steroids (late onset acute GVHD); format: in vivo, human
Description: Person one with secondary acute myeloid leukemia in 1st complete remission, underwent and allogeneic hematopoietic cell transplantation from a matched unrelated donor with a myeloablative conditioning consisting of fludarabine (160 mg/m^2), busulfex (12.8 mg/kg) and ATG (Fresenius, 15 mg/kg). Eleven months after transplantation they developed jaundice with bilirubin level of 4.2 mg % and biopsy proven late onset acute GVHD of the liver ranked as stage 2 and grade 3. […] They started oral CBD 150 mg BID. […] Steroids could be tapered off to a low dose of 7.5 mg QD.
person two with refractory follicular lymphoma underwent an allogeneic hematopoietic cell transplantation from a matched unrelated donor with a reduced intensity conditioning consisting of fludarabine (150 mg/m^2), melphalan (100 mg/m^2) and ATG (Fresenius 15 mg/kg) and achieved a complete remission. Two years later they relapsed and received salvage immune-chemotherapy with bendamustine and rituximab followed by DLI and achieved a complete remission. One month later they were admitted with severe late onset acute GVHD with skin (rash) and upper (nausea and vomiting) plus lower gastrointestinal involvement (bloody diarrhea, crampy abdominal pain and severely inflamed and ulcerated mucosa). Biopsy proven GVHD was ranked as stage 3 of the skin and stage 4 and grade 4 acute GVHD of the GIT. They started cyclosporine and high-dose steroids. Despite skin response, GVHD of the GIT was refractory to prolonged systemic treatment of steroids. […] Prednisone was tapered off to 20 mg QD (40%)—found to be therapeutically effective.

[4] = system: patients with extensive chronic GVHD after allogeneic HCT; assay: CBD treatment for chronic GVHD (12 patients); format: in vivo, human; conditions: oral CBD 50 mg twice a day
Description: Twelve patients over 18 years of age with extensive chronic GVHD after allogeneic HCT were recruited at the Rabin Medical Center in Israel. Patients having a history of psychosis or asthma, or consuming Cannabis during the last two months before transplantation were excluded from the study.
Patients were presently treated with a calcineurine inhibitor (cyclosporine or tacrolimus) with or without oral prednisone.
Patients were given oral CBD 50 mg twice a day.

[5] = system: patients experiencing severe acute GVHD; assay: Case studies: CBD for severe (grade 3-4) and/or refractory acute GVHD; format: in vivo, human
Description: This example describes cases studies that show the surprising efficacy of CBD treatment of patients experiencing severe acute GVHD.
A person with acute myeloid leukemia in second complete remission, underwent an allogeneic hematopoietic cell transplantation from a matched sibling donor with a myeloablative conditioning consisting of fludarabine (160 mg/m^2) and busulfex (12.8 mg/kg). One month post-transplantation they developed classic grade 4 acute GVHD of the gastro-intestinal tract (GIT) confirmed by intestinal biopsy. They were refractory to cyclosporine and high-dose steroids, and was then given second line therapy consisting of mycophenolate mofetil followed by extra-corporeal photopheresis (ECP), from which a partial response was obtained. The patient then developed severe myopathy and became bed restricted. During tapering off of steroids they had relapse of grade 4 acute GVHD with GIT and skin involvement. They were refractory to high-dose steroids and thus started oral cannabidiol (CBD) 150 mg twice a day. […] CBD was stopped several weeks later upon remission. […] Nevertheless, they developed chronic GVHD for which they were given low dose cyclosporine and low dose prednisone.
A person with Philadelphia positive acute lymphoid leukemia in first complete remission underwent an allogeneic hematopoietic cell transplantation from a matched unrelated donor with reduced intensity conditioning consisting of fludarabine (150 mg/m^2), busulfex (12.8 mg/kg) and ATG (Fresenius, 15 mg/kg). Two months after transplantation, they developed generalized erythroderma ranked as stage 3 and grade 2 acute GVHD of the skin, which was confirmed by skin biopsy. Due to refractoriness to tacrolimus, systemic and topical steroids they started ECP with some improvement but without remission. They were still on tacrolimus and steroids when 11 months post-transplantation they had severe worsening of their skin rash with generalized erythroderma and desquamation ranked as stage 4 and grade 4 acute GVHD of the skin. They started oral CBD 150 mg twice a day and prednisone 40 mg once a day. […] CBD was stopped 2 months later after obtaining complete remission of acute GVHD.
A person with acute myeloid leukemia in first complete remission, underwent an allogeneic hematopoietic cell transplantation from a matched sibling donor with myeloablative conditioning consisting of busulfex (12.8 mg/kg) and cyclophosphamide (120 mg/kg). Eight months post-transplantation, leukemia relapsed. They received salvage chemotherapy followed by donor lymphocyte infusion (DLI) and achieved a complete hematologic remission. One month post DLI they developed jaundice with bilirubin levels of 11.5 mg % (normal≤1 mg %) and biopsy proven late onset acute GVHD of the liver ranked as stage 3 and grade 3. They were refractory to high-dose steroids and started oral CBD 150 mg twice a day.

[6] = system: patient suffering from psychological or neurological disorders; conditions: doses of up to 1500 mg per day; cited from earlier work
[7] = of the 11 patients with chronic GVHD
[8] = with calcineurine inhibitor with or without oral prednisone
[9] = person, stage 3 grade 3 acute GVHD of the liver, oral CBD 150 mg twice a day

## C=C(C)[C@@H]1CCC(C)=C[C@H]1c1c(O)cc(CCCCC)cc1O [CBD, 2-[(6R)-3-Methyl-6-prop-1-en-2-yl-1cyclohex-2-envyl]-5pentylbenzene-1,3-diol]
[1]; 6 months after HCT
  Cumulative incidence of relapse: 22%
  Non-relapse mortality: 11.6%
  Overall survival rate: 76%
[1]; 12 months after HCT
  Cumulative incidence of relapse: 31%
  Non-relapse mortality: 11.6%
  Overall survival rate: 70%
[1]; 46 patients recruited, CBD prophylaxis
  patients who developed grade 2 to 4 acute GVHD: Six
[1]; 100 days after HCT
  Cumulative incidence of relapse: 12%
  Non-relapse mortality: 8.1%
  Overall survival rate: 84%
[1]; after allogeneic stem cell transplantation
  effect on incidence and severity of GVHD (conclusion): reduces the incidence and severity of acute and chronic GVHD
[1]; among patients surviving more than 100 days after HCT (n=33)
  patients in whom chronic GVHD occurred: 11 patients
[1]; at 1 year
  Cumulative incidence rate of extensive chronic GVHD: 19%
  Cumulative incidence rate of overall chronic GVHD: 43%
[1]; at day 100
  Cumulative incidence rate of grade 2 to 4 acute GVHD: 12.4%
  Cumulative incidence rate of grade 3 to 4 acute GVHD: 5%
[1]; [7]
  patients with limited chronic GVHD: 8 patients
  patients with severe chronic GVHD: 3 patients
[1]; oral CBD 2.5% in olive oil, day -7 to +30, 10 mg up to 150 mg twice a day, with cyclosporine + methotrexate prophylaxis
  grade 3 to 4 toxicities related to CBD: No grade 3 to 4 toxicities related to CBD were observed
[1]; preventing acute and chronic GVHD
  toxicity and psychotropic effects (conclusion): low toxicity and lack of psychotropic effects
[1]; range 41 to 150 days
  Median time to onset of grade 2 to 4 acute GVHD: 60 days
[1]; range 125 to 335 days
  median time to onset of chronic GVHD: 159 days
[2]; cyclosporine and oral steroids stopped, oral CBD 75 mg BID, after several months
  clinical response, chronic extensive GVHD with severe sclerosis: significant improvement of their skin and joints range of motion
[2]; no improvement with cyclosporine, oral steroids, imatinib, oral CBD 75 mg twice a day, after several weeks
  clinical response, chronic extensive GVHD (oral cavity, eyes, liver, joints, skin sclerosis): resolved their liver and oral GVHD and significantly improved skin sclerosis and joint range of motion
[2]; oral CBD 75 mg twice a day
  Prednisone effective therapeutic dose tapered off up to: 7.5-10 mg QD
  reduction in the steroid's dose: 20-50%
[3]; person one, bilirubin 8.5 mg % on tacrolimus and steroids, oral CBD 150 mg BID
  jaundice and bilirubin, stage 3 and grade 3 acute GVHD of the liver: Jaundice resolved gradually and bilirubin dropped to normal levels
[3]; person one, oral CBD 150 mg BID
  steroid dose tapered off to: 7.5 mg QD
[3]; person two, refractory to prolonged systemic steroids, oral CBD 150 mg BID with steroids
  clinical response, stage 4 and grade 4 acute GVHD of the GIT: very good partial response (VGPR)
[3]; person two, methylprednisolone 0.5 mg/kg QD and CBD 150 mg BID
  response upon renewal of treatment: A second VGPR was obtained
[3]; person two, oral CBD 150 mg BID
  Prednisone tapered off to: 20 mg QD
[3]; person two, oral CBD 150 mg BID, prednisone 20 mg QD
  Prednisone tapered dose, printed percentage: 40%
[3]; person two, two months later, CBD discontinued without doctors' approval
  outcome after discontinuing CBD: diarrhea resumed following discontinuing CBD
[4]
  effect on severity of chronic GVHD (conclusion): reduces the severity of chronic GVHD
[4]; [8]
  clinical improvement, patients with lung involvement: 2 out of 3
  clinical improvement, patients with oral involvement: 3 out of 3
  clinical improvement, patients with skin involvement: 6 out of 8
[5]; acute Grade 3 and Grade 4 GVHD
  effect on refractory steroid dose (conclusion of case studies): rendered a refractory dose of a steroid-therapeutically effective
[5]; person, refractory to high-dose steroids, oral CBD 150 mg twice a day, after 14 days
  clinical response, grade 4 acute GVHD with GIT and skin involvement: complete cessation of diarrhea and resolution of their skin rash
[5]; person, stage 3 grade 3 acute GVHD of the liver, baseline 11.5 mg %, refractory to high-dose steroids, oral CBD 150 mg twice a day
  bilirubin level after treatment: 0.7-1.3 mg %
[5]; [9]
  jaundice: resolved within few days
  steroid tapering: tapered off until complete cessation
[5]; person, eighteen months following cessation of treatment
  acute GVHD status at follow-up: no symptoms or signs of acute GVHD
[5]; person, oral CBD 150 mg twice a day and prednisone 40 mg once a day, on tacrolimus
  skin rash and desquamation, stage 4 and grade 4 acute GVHD of the skin: improved promptly until complete resolution
[6]
  adverse effects in clinical studies: without any significant adverse effects
